Experimental data from BindingDB's records for doi:10.1124/jpet.104.070086 (University of North Carolina At Chapel Hill, 2004).

Molecular target: Histamine H1 receptor (Cavia porcellus, UniProt P31389)
Sequence (P31389 whole entry): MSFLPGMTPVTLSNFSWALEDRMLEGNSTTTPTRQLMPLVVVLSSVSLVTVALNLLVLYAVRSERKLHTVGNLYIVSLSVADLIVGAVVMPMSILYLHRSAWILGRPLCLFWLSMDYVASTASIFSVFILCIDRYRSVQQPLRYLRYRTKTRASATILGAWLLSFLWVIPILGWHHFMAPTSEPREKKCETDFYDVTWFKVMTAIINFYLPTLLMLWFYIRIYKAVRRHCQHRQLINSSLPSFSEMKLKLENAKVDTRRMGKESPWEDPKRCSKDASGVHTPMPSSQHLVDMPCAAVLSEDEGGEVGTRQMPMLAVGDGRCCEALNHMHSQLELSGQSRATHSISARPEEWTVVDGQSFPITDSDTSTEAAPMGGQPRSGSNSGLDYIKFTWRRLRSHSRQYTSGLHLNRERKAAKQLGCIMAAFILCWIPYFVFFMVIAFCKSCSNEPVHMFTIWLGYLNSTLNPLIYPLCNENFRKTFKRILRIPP

Ki: 0.93 nM
Compound: Cc1ccc(C(=CCN2CCCC2)c2ccccn2)cc1 [CAS_486-12-4]
